Reference: PubChem BioAssay AID2060897 (Molecular Pharmacology Branch, DTP, NCI, 2025)
pIC50: −log10 of the molar value.

System: 966289-007-R4-J1-PDC complex spheroid viability
Assay: Anticancer human tumor 966289-007-R4-J1-PDC patient-derived pancreatic adenocarcinoma cell line growth inhibition [RAS]
Details: for viability, T/C: stronger effect = lower value; for pIC50: curve of first compound
Procedure, shortened: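 Tumour cells grown as complex spheroids with HUVEC endothelial cells and mesenchymal stem cells, treated with RAS pathway inhibitor combinations. Each agent spans half-log steps from near clinical Cmax, or 10 microM where Cmax is unknown.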
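Also: spheroids exposed to agents for one week before readout.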
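For viability, T/C in this document: percent viability relative to DMSO vehicle control wells as 100%.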

Q: For `CCc1c2c(nc3ccc(O)cc13)-c1cc3c(c(=O)n1C2)COC(=O)[C@]3(O)CC`, which viability, T/C (compound 0.003 µM) is on record?
A: Its viability, T/C is 2.73% [middle of 4 runs].

Q: What about the viability, T/C (compound 0.00949 µM) of the same compound?
A: Its viability, T/C is 1.18% [middle of 4 runs].

Q: What about the viability, T/C (compound 0.03 µM) of the same compound?
A: Its viability, T/C is 0.96% [middle of 4 runs].

Q: And the viability, T/C (compound 0.0949 µM)?
A: Its viability, T/C is 0.88% [middle of 4 runs].

Q: What about the viability, T/C (compound 0.3 µM) of the same compound?
A: The viability, T/C was 0.94% [middle of 4 runs].

Q: And the IC50 (curve of compound)?
A: Its IC50 is 1.62 nM [middle of 4 runs].

Q: Which results are given for `CC(C)n1nc(-c2ccc3oc(N)nc3c2)c2c(N)ncnc21` + C=CC(=O)N1CCN(c2nc(OCC3CCCN3C)nc3c(F)c(-c4nc(N)cc(C)c4C(F)(F)F)c(Cl)cc23)C(C)C1?
A: pIC50 (second compound 0.00316 µM): 7.44; pIC50 (second compound 0.01 µM): 7.48; pIC50 (second compound 0.0316 µM): 7.36; pIC50 (second compound 0.1 µM): 7.46; pIC50 (second compound 0.316 µM): 7.29; pIC50 (second compound 1 µM): 7.53; viability, T/C (second compound 0.00316 µM, first compound 0.000316 µM): 116%; viability, T/C (second compound 0.00316 µM, first compound 0.001 µM): 83.6%; viability, T/C (second compound 0.00316 µM, first compound 0.00316 µM): 111%; viability, T/C (second compound 0.00316 µM, first compound 0.01 µM): 105%; viability, T/C (second compound 0.00316 µM, first compound 0.0316 µM): 54.5%; viability, T/C (second compound 0.00316 µM, first compound 0.1 µM): 17.7%; viability, T/C (second compound 0.01 µM, first compound 0.000316 µM): 110%; viability, T/C (second compound 0.01 µM, first compound 0.001 µM): 108%; viability, T/C (second compound 0.01 µM, first compound 0.00316 µM): 112%; viability, T/C (second compound 0.01 µM, first compound 0.01 µM): 94.2%; viability, T/C (second compound 0.01 µM, first compound 0.0316 µM): 51.5%; viability, T/C (second compound 0.01 µM, first compound 0.1 µM): 19.6%; viability, T/C (second compound 0.0316 µM, first compound 0.000316 µM): 123%; viability, T/C (second compound 0.0316 µM, first compound 0.001 µM): 113%; viability, T/C (second compound 0.0316 µM, first compound 0.00316 µM): 121%; viability, T/C (second compound 0.0316 µM, first compound 0.01 µM): 101%; viability, T/C (second compound 0.0316 µM, first compound 0.0316 µM): 62.5%; viability, T/C (second compound 0.0316 µM, first compound 0.1 µM): 18.9%; viability, T/C (second compound 0.1 µM, first compound 0.000316 µM): 103%; viability, T/C (second compound 0.1 µM, first compound 0.001 µM): 97.3%; viability, T/C (second compound 0.1 µM, first compound 0.00316 µM): 106%; viability, T/C (second compound 0.1 µM, first compound 0.01 µM): 106%; viability, T/C (second compound 0.1 µM, first compound 0.0316 µM): 52.4%; viability, T/C (second compound 0.1 µM, first compound 0.1 µM): 21.1%; viability, T/C (second compound 0.316 µM, first compound 0.000316 µM): 103%; viability, T/C (second compound 0.316 µM, first compound 0.001 µM): 82.2%; viability, T/C (second compound 0.316 µM, first compound 0.00316 µM): 132%; viability, T/C (second compound 0.316 µM, first compound 0.01 µM): 116%; viability, T/C (second compound 0.316 µM, first compound 0.0316 µM): 68.4%; viability, T/C (second compound 0.316 µM, first compound 0.1 µM): 24.9%; viability, T/C (second compound 1 µM, first compound 0.000316 µM): 92.5%; viability, T/C (second compound 1 µM, first compound 0.001 µM): 102%; viability, T/C (second compound 1 µM, first compound 0.00316 µM): 111%; viability, T/C (second compound 1 µM, first compound 0.01 µM): 91.9%; viability, T/C (second compound 1 µM, first compound 0.0316 µM): 47.1%; viability, T/C (second compound 1 µM, first compound 0.1 µM): 20.3%
